# Assay results reported in patent publication US20250353864A1, “INDAZOLE CONTAINING MACROCYCLES AND THEIR USE” (BLOSSOMHILL THERAPEUTICS, INC., priority 2022, published 2025).
# Columns and labels:
# Assay type in all cases: biochemical
# [1] = target: EGFR (D770_N771insNPG) (Homo sapiens (Human), UniProt P00533, INS770NPG); experiment: HotSpot radiometric kinase assay, EGFR (D770_N771insNPG); settings: 10 μM ATP, read-out: EGFR (Δ770_N771insNPG) IC50
# Experimental: (§1) Biochemical Assays for Inhibition of Wild-Type and Mutant EGFRs
# (§2) Briefly, specific kinase/substrate pairs along with required cofactors were prepared in reaction buffer; 20 mM Hepes pH 7.5, 10 mM […], 1 mM EGTA, 0.02% Brij35, 0.02 mg/ml BSA, 0.1 mM Na3VO4, 2 mM DTT, 1% DMSO. Compounds were delivered into the reaction, followed […] later by addition of a mixture of ATP (Sigma, St. Louis MO) and ^33P ATP (Perkin Elmer, Waltham MA) to a final concentration of 10 μM. Reactions were carried out at room temperature for 120 min, followed by spotting of the reactions onto P81 ion exchange filter paper (Whatman Inc., Piscataway, NJ). Unbound phosphate was removed by extensive washing of filters in 0.75% phosphoric acid. […] IC50 values and curve fits were obtained using Prism (GraphPad Software).
# [2] = target: EGFR L858R/T790M mutant (Homo sapiens (Human), UniProt P00533, L858R/T790M); experiment: HotSpot radiometric kinase assay, EGFR L858R/T790M mutant; settings: 10 μM ATP
# Experimental: as §1, §2
# [3] = target: EGFR L858R mutant (Homo sapiens (Human), UniProt P00533, L858R); experiment: HotSpot radiometric kinase assay, EGFR L858R mutant; settings: 10 μM ATP
# Experimental: as §1, §2
# [4] = target: EGFR Δ746-750 mutant (Homo sapiens (Human), UniProt P00533, DEL746-750); experiment: HotSpot radiometric kinase assay, EGFR Δ746-750 mutant; settings: 10 μM ATP
# Experimental: as §1, §2
# [5] = target: EGFR L858R/T790M/C797S mutant (Homo sapiens (Human), UniProt P00533, C797S/L858R/T790M); experiment: HotSpot radiometric kinase assay, EGFR L858R/T790M/C797S mutant; settings: 10 μM ATP
# Experimental: as §1, §2
# [6] = target: EGFR WT (Homo sapiens (Human), UniProt P00533); experiment: HotSpot radiometric kinase assay (Reaction Biology), EGFR WT; settings: 10 μM ATP
# Experimental: as §1, §2
# [7] = target: EGFR Δ746-750/C797S mutant (Homo sapiens (Human), UniProt P00533, C797S/DEL746-750); experiment: HotSpot radiometric kinase assay, EGFR Δ746-750/C797S mutant; settings: 10 μM ATP
# Experimental: as §1, §2
# EGFR L858R/T790M/C797S mutant, sequence (P00533 25-1210 T790M/C797S/L858R): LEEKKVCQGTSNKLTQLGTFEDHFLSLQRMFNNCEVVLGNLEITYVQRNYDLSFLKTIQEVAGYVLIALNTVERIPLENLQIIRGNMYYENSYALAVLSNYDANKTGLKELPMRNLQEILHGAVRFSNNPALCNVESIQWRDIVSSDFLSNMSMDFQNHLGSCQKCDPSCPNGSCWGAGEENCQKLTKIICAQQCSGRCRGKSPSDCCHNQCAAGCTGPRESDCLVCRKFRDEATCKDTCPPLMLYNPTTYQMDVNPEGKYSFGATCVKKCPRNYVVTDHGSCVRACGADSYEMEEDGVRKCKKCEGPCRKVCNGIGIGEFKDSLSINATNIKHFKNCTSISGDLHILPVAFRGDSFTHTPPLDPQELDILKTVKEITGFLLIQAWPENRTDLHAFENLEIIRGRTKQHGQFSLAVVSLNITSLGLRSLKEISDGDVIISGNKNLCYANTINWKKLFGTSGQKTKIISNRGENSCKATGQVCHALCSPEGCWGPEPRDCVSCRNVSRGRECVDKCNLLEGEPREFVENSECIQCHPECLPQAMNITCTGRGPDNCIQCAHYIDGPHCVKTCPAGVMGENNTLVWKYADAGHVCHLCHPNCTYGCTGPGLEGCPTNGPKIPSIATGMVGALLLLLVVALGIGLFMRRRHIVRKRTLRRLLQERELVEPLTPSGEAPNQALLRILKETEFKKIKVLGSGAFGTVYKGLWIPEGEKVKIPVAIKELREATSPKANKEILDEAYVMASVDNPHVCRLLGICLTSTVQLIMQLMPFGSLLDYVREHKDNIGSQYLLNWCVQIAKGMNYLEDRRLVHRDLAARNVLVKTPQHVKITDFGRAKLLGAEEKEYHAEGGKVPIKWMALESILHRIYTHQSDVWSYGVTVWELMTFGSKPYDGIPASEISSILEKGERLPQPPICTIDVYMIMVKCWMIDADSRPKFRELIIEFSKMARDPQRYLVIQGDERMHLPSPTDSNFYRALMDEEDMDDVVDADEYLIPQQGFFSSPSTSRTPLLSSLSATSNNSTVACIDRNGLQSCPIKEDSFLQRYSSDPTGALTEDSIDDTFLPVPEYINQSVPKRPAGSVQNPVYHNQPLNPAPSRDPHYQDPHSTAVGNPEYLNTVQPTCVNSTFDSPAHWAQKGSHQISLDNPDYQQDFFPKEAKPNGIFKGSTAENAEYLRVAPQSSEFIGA
# EGFR L858R/T790M mutant, sequence (P00533 25-1210 T790M/L858R): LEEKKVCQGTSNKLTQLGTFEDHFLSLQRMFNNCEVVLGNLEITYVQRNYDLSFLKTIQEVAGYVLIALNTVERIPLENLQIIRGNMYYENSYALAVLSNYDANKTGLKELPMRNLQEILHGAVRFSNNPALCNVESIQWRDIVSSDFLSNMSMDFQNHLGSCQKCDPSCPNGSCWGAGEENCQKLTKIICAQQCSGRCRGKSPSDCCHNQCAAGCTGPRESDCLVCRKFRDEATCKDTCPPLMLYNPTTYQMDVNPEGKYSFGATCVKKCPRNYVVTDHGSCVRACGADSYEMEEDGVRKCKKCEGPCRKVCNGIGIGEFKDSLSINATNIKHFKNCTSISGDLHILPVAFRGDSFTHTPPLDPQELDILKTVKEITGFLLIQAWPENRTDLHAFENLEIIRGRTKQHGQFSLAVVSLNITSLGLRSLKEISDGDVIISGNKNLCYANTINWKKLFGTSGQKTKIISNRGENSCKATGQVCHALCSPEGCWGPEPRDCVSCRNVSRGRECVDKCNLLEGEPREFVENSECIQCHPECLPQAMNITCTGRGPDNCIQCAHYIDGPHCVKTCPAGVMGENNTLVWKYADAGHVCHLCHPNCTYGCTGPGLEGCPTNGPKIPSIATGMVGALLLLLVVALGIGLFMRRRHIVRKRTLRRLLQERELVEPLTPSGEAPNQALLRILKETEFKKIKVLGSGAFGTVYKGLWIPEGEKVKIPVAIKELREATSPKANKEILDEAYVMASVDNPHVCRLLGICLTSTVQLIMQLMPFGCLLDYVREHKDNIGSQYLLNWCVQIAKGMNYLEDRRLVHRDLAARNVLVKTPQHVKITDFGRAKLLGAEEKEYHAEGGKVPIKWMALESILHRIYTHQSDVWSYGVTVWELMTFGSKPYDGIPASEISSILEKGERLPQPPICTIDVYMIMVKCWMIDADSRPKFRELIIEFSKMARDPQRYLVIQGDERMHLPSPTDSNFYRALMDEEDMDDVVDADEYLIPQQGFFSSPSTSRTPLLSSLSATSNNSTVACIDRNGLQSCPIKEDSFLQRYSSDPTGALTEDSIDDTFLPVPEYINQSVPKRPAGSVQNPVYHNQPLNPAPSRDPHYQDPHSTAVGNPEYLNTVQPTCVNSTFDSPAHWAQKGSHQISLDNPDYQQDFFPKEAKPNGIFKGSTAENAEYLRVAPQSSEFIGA
# EGFR WT, sequence (P00533 25-1210): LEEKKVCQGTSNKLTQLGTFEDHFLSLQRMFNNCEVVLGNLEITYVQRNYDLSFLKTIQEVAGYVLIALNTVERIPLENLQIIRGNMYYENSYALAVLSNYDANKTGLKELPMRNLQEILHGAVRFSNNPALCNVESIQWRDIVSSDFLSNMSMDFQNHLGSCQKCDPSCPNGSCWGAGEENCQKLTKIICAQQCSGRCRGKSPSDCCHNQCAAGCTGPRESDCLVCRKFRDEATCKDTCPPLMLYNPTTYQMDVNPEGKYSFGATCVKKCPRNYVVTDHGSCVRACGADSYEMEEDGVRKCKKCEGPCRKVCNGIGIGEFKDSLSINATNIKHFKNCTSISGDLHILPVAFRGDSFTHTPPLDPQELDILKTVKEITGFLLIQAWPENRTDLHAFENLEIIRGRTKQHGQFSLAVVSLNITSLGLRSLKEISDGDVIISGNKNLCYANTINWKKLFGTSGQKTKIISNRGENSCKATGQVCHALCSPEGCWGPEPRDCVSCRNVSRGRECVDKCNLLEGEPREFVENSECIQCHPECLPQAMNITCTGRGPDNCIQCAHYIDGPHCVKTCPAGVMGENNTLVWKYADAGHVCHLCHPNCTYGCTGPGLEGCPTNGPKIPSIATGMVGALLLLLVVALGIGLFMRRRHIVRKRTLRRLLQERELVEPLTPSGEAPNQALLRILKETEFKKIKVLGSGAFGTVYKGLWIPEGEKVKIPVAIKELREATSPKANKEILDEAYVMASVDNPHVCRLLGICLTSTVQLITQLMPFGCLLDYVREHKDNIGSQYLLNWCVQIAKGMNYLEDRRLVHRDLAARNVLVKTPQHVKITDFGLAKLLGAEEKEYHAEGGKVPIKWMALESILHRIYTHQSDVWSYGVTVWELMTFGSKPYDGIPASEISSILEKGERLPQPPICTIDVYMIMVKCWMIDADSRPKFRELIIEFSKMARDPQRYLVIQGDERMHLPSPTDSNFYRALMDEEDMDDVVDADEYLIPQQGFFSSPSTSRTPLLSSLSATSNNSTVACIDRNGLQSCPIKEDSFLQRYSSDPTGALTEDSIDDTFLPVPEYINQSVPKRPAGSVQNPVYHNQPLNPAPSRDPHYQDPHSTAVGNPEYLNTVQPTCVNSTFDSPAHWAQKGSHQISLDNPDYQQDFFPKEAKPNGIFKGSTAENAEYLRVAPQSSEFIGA
# EGFR Δ746-750 mutant, sequence (P00533 other isoform, or with tags, fused parts or gaps del 1-668/del 746-750 limits assumed): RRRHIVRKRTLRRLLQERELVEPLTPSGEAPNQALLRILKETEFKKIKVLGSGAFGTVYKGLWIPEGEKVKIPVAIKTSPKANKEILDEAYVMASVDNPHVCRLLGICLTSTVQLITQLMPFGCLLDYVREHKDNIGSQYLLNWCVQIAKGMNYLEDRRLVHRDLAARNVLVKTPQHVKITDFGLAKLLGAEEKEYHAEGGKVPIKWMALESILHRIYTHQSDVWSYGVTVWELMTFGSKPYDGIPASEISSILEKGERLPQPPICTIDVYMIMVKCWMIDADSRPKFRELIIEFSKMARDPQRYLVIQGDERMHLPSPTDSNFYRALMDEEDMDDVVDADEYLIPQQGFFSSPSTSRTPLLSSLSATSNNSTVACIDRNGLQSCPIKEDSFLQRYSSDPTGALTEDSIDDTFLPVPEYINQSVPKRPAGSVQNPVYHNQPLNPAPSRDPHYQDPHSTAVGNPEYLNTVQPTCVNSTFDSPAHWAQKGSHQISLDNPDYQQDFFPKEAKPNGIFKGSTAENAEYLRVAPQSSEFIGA
# EGFR (D770_N771insNPG), sequence (P00533 other isoform, or with tags, fused parts or gaps del 1-668/ins NPG behind 770 limits assumed): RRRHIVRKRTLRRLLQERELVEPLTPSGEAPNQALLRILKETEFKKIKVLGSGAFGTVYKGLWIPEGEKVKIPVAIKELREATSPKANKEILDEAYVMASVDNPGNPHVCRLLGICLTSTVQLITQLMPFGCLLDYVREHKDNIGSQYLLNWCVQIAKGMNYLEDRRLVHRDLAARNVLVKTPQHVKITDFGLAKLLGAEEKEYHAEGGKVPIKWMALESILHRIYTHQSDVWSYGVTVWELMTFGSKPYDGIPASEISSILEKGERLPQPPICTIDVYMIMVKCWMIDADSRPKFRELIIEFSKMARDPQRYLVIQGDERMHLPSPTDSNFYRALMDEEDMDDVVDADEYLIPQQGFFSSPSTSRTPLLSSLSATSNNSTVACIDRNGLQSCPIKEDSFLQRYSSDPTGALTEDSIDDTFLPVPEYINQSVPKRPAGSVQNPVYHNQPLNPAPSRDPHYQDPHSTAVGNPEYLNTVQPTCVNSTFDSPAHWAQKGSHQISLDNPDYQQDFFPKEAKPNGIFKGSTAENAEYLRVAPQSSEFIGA
IC50 [1],IC50 [2],IC50 [3],IC50 [4],IC50 [5],IC50 [6],IC50 [7],Structure (SMILES)
300 nM,0.54 nM,24.7 nM,24 nM,1.37 nM,139 nM,6.6 nM,"C[C@H]1CN(C)Cc2c(c(O[C@H]3CCN(S(C)(=O)=O)C3)nn2CCO)/C=C/c2n[nH]c3ccc(cc23)-c2cnn(C)c2O1 [Example 182, 2-[(10S,17E)-16-{[(3S)-1-(methanesulfonyl)pyrrolidin-3-yl]oxy}-8,10,12-trimethyl-2,8,10,11,12,13-hexahydro-14H-3,5-ethenotripyrazolo[3,4-f:3′,4′-j:4″,3″- n][1,4]oxazacyclopentadecin-14-yl]ethan-1-ol]"
84.3 nM,17.5 nM,55.9 nM,59.7 nM,21.2 nM,295 nM,28.5 nM,"Cc1nn([C@H]2CN(C)C[C@@H]2O)c2c1/C=C/c1n[nH]c3ccc(cc13)-c1cnn(C)c1OCCCO2 (racemic) [Example 75, (rac)-4-[(17E)-8,16-dimethyl-2,8,11,12-tetrahydro-10H,14H-3,5-etheno[1,5]dioxacyclopentadecino[10,11-c:15,14-c′:6,7-c″]tripyrazol-14-yl]-1-methylpyrrolidin-3-ol]"
> 1000 nM,> 1000 nM,> 1000 nM,> 1000 nM,> 1000 nM,> 1000 nM,> 1000 nM,"Cc1c2c(nn1[C@H]1CCOC[C@@H]1O)OCCCOc1c(cnn1C)-c1ccc3[nH]nc(c3c1)/C=C/2 (racemic) [Example 87, (rac)-1,5-anhydro-2,3-dideoxy-3-[(17E)-8,16-dimethyl-2,8,11,12-tetrahydro-10H,15H-3,5-etheno[1,5]dioxacyclopentadecino[10,11-c:15,14-c′:6,7-c″ ]tripyrazol-15-yl]-L-threo-pentitol]"
53.5 nM,2.2 nM,20 nM,6.91 nM,6.18 nM,70.1 nM,8.36 nM,"Cc1c2c(nn1C1CCN(C)C1)OCCN(C)Cc1c(cnn1C)-c1ccc3[nH]nc(c3c1)/C=C/2 (stereo not shown) [Example 117, (17E)-8,10,16-trimethyl-14-(1-methylpyrrolidin-3-yl)-2,9,10,11,12,14-hexahydro-8H-3,5-ethenotripyrazolo[3,4-f:4′,3′-j:4″,3″-n][1,4]oxazacyclopentadecine]"
283 nM,6.14 nM,94.1 nM,40.7 nM,13 nM,296 nM,41.3 nM,"Cc1c2c(nn1CCN1CCCC1)CN(C)C[C@@H](C)Oc1c(cnn1C)-c1ccc3[nH]nc(c3c1)/C=C/2 [Example 121, (10R,17E)-8,10,12,16-tetramethyl-15-[2-(pyrrolidin-1-yl)ethyl]-2,10,11,12,13,15-hexahydro-8H-3,5-ethenotripyrazolo[3,4-f:3′,4′-j:4″,3″- n][1,4]oxazacyclopentadecine]"
> 1000 nM,,285 nM,112 nM,27 nM,1460 nM,130 nM,"Cc1c2c(nn1C)CN(C)CCOc1c(cnn1C)-c1ccc3[nH]nc(c3c1)/C=C/2 [Example 44, (17E)-8,12,15,16-tetramethyl-2,10,11,12,13,15-hexahydro-8H-3,5-ethenotripyrazolo[3,4-f:3′,4′-j:4″,3″- n][1,4]oxazacyclopentadecine]"

# Second part, the molecule before the results:
Structure (SMILES),IC50 [1],IC50 [2],IC50 [3],IC50 [4],IC50 [5],IC50 [6],IC50 [7]
"CCOc1nn(CCO)c2c1/C=C/c1n[nH]c3ccc(cc13)-c1cnn(C)c1O[C@H]1CN(C)C[C@@H]1N(C)C2 (single isomer, unassigned) [Ex. 270]",635 nM,4.58 nM,161 nM,93.6 nM,1.1 nM,543 nM,20.5 nM
"CCc1nn(CCO)c2c1/C=C/c1n[nH]c3ccc(cc13)-c1cnn(C)c1O[C@@H](C)CN(C)C2 [Example 129, 2-[(10S,17E)-16-ethyl-8,10,12-trimethyl-2,8,10,11,12,13-hexahydro-14H-3,5-ethenotripyrazolo[3,4-f:3′,4′-j:4″,3″-n][1,4]oxazacyclopentadecin-14-yl]ethan-1-ol]",6.5 nM,0.09 nM,0.47 nM,0.58 nM,0.33 nM,3.02 nM,0.4 nM
"Cc1nn([C@H]2CC[C@@H]2O)c2c1/C=C/c1n[nH]c3ccc(cc13)-c1cnn(C)c1OCCCO2 (racemic) [Example 78, (rac)-2-[(17E)-8,16-dimethyl-2,8,11,12-tetrahydro-10H,14H-3,5-etheno[1,5]dioxacyclopentadecino[10,11-c:15,14-c′:6,7-c″ ]tripyrazol-14-yl]cyclobutan-1-ol]",910 nM,206 nM,688 nM,212 nM,296 nM,> 1000 nM,775 nM
"CCc1nn(C)c2c1/C=C/c1n[nH]c3ccc(cc13)-c1cnn(C)c1OCC[C@@H](C)O2 [Ex. 15, (12R,17E)-16-ethyl-8,12,14-trimethyl-2,11,12,14-tetrahydro-8H,10H-3,5-etheno[1,5]dioxacyclopentadecino[10,11-c:15,14-c′:6,7-c″]tripyrazole]",286 nM,,105 nM,139 nM,26.4 nM,419 nM,27.5 nM
"Cn1ncc2c1COCCOc1ccccc1/C=C/c1n[nH]c3ccc-2cc13 [Ex. 1, (11E)-1-methyl-1,18,19,21-tetrahydro-8H-10,7,4-(ethan[1]yl[1,2]diylidene)pyrazolo[3,4-f][1,4,12,13]benzodioxadiazacyclooctadecine]",> 1000 nM,251 nM,848 nM,68.4 nM,259 nM,> 1000 nM,177 nM
"Cn1ncc2c1OCCN1CC[C@@H](Oc3ccc(C(C)(C)O)cc3/C=C/c3n[nH]c4ccc-2cc34)C1=O [Example 135, (10R,16E)-14-(2-hydroxypropan-2-yl)-3-methyl-3,5,6,9,10,19-hexahydro-8H-20,22-etheno-7,10-methanodipyrazolo[3,4-i:4′,3′-m][1,8,5]benzodioxazacyclooctadecin-25-one]",802 nM,20 nM,128 nM,48.3 nM,38.6 nM,829 nM,97.7 nM
"CC(C)Oc1nn(CCO)c2c1/C=C/c1n[nH]c3ccc(cc13)-c1cnn(C)c1O[C@H](C)[C@H]1CCCN1C2 [Example 253, 2-[(8aR,9R,19E)-9,11-dimethyl-1-[(propan-2-yl)oxy]-7,8,8a,9,11,17-hexahydro-6H-14,16-ethenotripyrazolo[3,4-f:3′,4′-j:4″,3″-n]pyrrolo[2,1-c][1,4]oxazacyclopentadecin-3(4H)-yl]ethan-1-ol]",3.21 nM,2.55 nM,1.66 nM,0.75 nM,5.27 nM,1.63 nM,1.98 nM
"CCc1nn(CCO)c2c1/C=C/c1n[nH]c3ccc(cc13)-c1cnn(C)c1OCCCO2 [Ex. 23, 2-[(17E)-16-ethyl-8-methyl-2,8,11,12-tetrahydro-10H,14H-3,5-etheno[1,5]dioxacyclopentadecino[10,11-c:15,14-c′:6,7-c″]tripyrazol-14-yl]ethan-1-ol]",362 nM,13.1 nM,96.6 nM,29.3 nM,22.5 nM,290 nM,44.5 nM
CN1CCN(c2ccc3c(c2)OC2CCN(CCOc4c(cnn4C)-c4ccc5[nH]nc(c5c4)/C=C/3)C2=O)CC1 (stereo in doubt) [Example 131],6.79 nM,0.57 nM,4.02 nM,1.65 nM,1.9 nM,17.7 nM,4.09 nM
"CCc1nn(C)c2c1/C=C/c1n[nH]c3ccc(cc13)-c1cnn(C)c1O[C@@H](C)CCO2 [Ex. 37, (10S,17E)-16-ethyl-8,10,14-trimethyl-2,11,12,14-tetrahydro-8H,10H-3,5-etheno[1,5]dioxacyclopentadecino[10,11-c:15,14-c′:6,7-c″]tripyrazole]",212 nM,,41.8 nM,64 nM,17.3 nM,157 nM,49.9 nM
"CCc1nn(C)c2c1/C=C/c1n[nH]c3ccc(cc13)-c1cnn(C)c1OCC[C@H](C)O2 [Ex. 14, (12S,17E)-16-ethyl-8,12,14-trimethyl-2,11,12,14-tetrahydro-8H,10H-3,5-etheno[1,5]dioxacyclopentadecino[10,11-c:15,14-c′:6,7-c″]tripyrazole]",312 nM,,63.8 nM,124 nM,19.5 nM,339 nM,34.7 nM
